Experimental data as given in patent US4507320A.
pEC50: −log10 of the molar value. Like-named read-outs stand apart in the source and are kept apart here.

Tests used:
[1] = system: adenylate cyclase in the caudate nucleus; details: compared with dopamine; cited from earlier work
[2] = system: alpha1; experiment: alpha1-agonist activity in superfused rabbit ear artery segment; details: read-out: EC50-α1, acid addition salt form
Description: (§1) The procedure measures the ability of the test compound to inhibit the constrictor response of isolated perfused rabbit ear artery caused by field stimulation of its adrenergic nerve terminals. Activity in this test is, then, compared with undesired alpha1 -agonist activity which is determined in the superfused rabbit ear artery segment.

[3] = system: alpha2; experiment: alpha2-agonist activity in isolated guinea pig atrial tissue
[4] = molecular target: T1, presynaptic dopaminergic (DA2) receptor (Oryctolagus cuniculus, UniProt G1T1Q0)
Description: as §1

[5] = system: presynaptic dopaminergic (DA2) receptor; details: for vasoconstriction observed during the tests (alpha1-mediated): rabbit ear artery, Compound B at 300 nM in the effector response test
Description: as §1

[6] = molecular target: T1, presynaptic dopaminergic (DA2) receptor; experiment: stimulation-evoked 3H-norepinephrine release from prelabelled rabbit ear artery (DA2)

T1 sequence (G1T1Q0 1-443): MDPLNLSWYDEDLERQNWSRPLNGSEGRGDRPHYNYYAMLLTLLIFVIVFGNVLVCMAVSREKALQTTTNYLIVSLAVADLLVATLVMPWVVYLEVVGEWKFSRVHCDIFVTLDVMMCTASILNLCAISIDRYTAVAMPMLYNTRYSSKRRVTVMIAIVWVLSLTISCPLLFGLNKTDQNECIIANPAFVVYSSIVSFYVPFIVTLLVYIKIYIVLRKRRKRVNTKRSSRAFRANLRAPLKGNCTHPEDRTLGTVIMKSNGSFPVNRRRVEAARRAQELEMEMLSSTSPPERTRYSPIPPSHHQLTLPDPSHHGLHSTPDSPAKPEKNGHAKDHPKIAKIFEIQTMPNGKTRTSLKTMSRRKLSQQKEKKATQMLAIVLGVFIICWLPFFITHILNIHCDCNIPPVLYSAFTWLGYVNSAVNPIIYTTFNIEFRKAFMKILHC

SMILES | agonist activity for adenylate cyclase [1] | pEC50 [2] | alpha2-agonist activity [3] | pEC50 [4] | selectivity for peripheral DA2 receptor sites over alpha1 ([5]; from DA2 EC50 vs alpha1 EC50) | vasoconstriction observed during the tests (alpha1-mediated) [5] | pEC50 [6]
CS(=O)(=O)Nc1cc(CCN)ccc1O [3-methylsulfonamido analogue of dopamine] | weaker than was dopamine itself | – | – | – | – | – | –
CCCN(CCC)CCc1ccc(O)c(NS(C)(=O)=O)c1 [Compound A] | – | 6.12 | no alpha2 -agonist activity | 8.70 | high selectivity for the desired peripheral DA2 receptor sites | No alpha1 -mediated vasoconstriction was observed | 8.00
CS(=O)(=O)Nc1cc(CCN)ccc1O [Compound B] | – | 6.45 | significant α2 -activity | < 6.52 | – | vasoconstriction was observed | 5.52
CNCCc1ccc(O)c(NS(C)(=O)=O)c1 [Compound C] | – | 7.60 | significant α2 -activity | < 7.52 | – | demonstrates vasoconstriction as a result of alpha1 -agonist activity | 6.52
CC(C)NCCc1ccc(O)c(NS(C)(=O)=O)c1 [D] | – | 5.70 | – | < 6.00 | – | – | –
CCCN(CCC)CCc1ccc(O)c(NS(=O)(=O)C(F)(F)F)c1 [E] | – | – | – | < 6.00 | – | – | –
CCCN(CCC)CCc1cccc(NS(C)(=O)=O)c1 [F] | – | – | – | 6.40 | – | – | –
CS(=O)(=O)Nc1cccc(CCN)c1 [G] | – | – | – | < 6.00 | – | – | –
